Legend:
[1] = tested on: MOLM-14 D835Y (endogenous FLT3 ITD and transfected FLT3 D835Y); assay: MOLM-14 D835Y cell proliferation assay (CellTiter-Glo); type: cell-based; conditions: Homo sapiens, MOLM-14, 72 h; 3 d growth, GMean
How it was run: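 MOLM-14 derivatives carrying D835Y or F691L, selected under escalating AC220, were seeded at 1×10^4 cells/well and exposed to an 8-point 1:3 compound series (1 to 0.00046 μM, 0.2% DMSO final) for three days at 37° C., 5% CO2. CellTiter-Glo luminescence (ATP content) versus concentration gave IC50.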

BA/F3-FLT3-ITD + D835Y = target: T1, BA/F3-FLT3-ITD + D835Y (Homo sapiens, UniProt P36888, D835Y, cells depend on it, form not given); assay: Engineered BA/F3 cell growth assay, FLT3 ITD/D835Y; type: cell-based, murine; conditions: 3 d growth
T1 sequence (P36888 with tags, fused parts or gaps INS600HVDFREYEYD/D835Y): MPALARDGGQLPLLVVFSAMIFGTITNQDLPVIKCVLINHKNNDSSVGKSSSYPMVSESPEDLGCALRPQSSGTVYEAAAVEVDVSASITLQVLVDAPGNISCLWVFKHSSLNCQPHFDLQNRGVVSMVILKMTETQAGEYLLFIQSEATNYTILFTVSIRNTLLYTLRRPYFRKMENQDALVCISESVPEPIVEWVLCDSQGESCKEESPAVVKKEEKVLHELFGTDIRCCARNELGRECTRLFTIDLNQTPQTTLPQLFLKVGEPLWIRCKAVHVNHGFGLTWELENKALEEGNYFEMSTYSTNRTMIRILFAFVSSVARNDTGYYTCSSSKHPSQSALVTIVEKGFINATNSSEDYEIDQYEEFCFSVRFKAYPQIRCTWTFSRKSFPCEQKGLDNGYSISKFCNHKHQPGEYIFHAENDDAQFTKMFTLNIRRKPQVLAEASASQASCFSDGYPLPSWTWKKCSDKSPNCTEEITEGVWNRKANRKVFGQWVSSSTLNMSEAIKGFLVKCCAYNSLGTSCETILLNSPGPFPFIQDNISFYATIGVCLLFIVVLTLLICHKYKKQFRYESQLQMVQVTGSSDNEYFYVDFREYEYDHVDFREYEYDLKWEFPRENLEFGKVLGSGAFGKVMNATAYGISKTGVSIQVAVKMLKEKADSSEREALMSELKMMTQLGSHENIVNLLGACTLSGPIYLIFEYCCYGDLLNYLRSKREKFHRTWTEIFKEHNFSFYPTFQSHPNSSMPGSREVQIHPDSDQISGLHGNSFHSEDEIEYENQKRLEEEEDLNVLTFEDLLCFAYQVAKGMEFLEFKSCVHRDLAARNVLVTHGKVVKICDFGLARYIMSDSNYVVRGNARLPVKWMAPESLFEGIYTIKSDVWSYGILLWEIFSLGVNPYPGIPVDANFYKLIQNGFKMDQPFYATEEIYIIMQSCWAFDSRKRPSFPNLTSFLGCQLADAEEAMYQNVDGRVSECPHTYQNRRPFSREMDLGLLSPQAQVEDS
How it was run: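 Murine Ba/F3 cells transfected with full-length FLT3 ITD/D835Y, grown without IL-3 so growth depends on FLT3. Seeded at 1×10^4 cells/well, 8-point 1:3 series to 1 μM top (0.2% DMSO), 3 days at 37 °C. CellTiter-Glo luminescence (ATP) versus concentration gave IC50.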

SMILES	IC50 [1] [µM]	GI50 (BA/F3-FLT3-ITD + D835Y) [µM]
COc1nn(C[C@H](C)O)cc1Nc1ncc(-c2ccc(CC(=O)Nc3cncc(C(F)(F)F)c3)c(F)c2)cn1 [Compound P-0050, 2-[2-fluoro-4-[2-[[1-[(2S)-2-hydroxypropyl]-3-methoxy-pyrazol-4-yl]amino]pyrimidin-5-yl]phenyl]-N-[5-(trifluoromethyl)-3-pyridyl]acetamide]	0.0001 to 10	0.0001 to 10
Cn1cnc(Nc2ncc(-c3ccc(CC(=O)Nc4cncc(C(F)(F)F)c4)c(F)c3)cn2)c1 [Compound P-0052, 2-[2-fluoro-4-[2-[(1-methylimidazol-4-yl)amino]pyrimidin-5-yl]phenyl]-N-[5-(trifluoromethyl)-3-pyridyl]acetamide]	0.0001 to 10	0.0001 to 10
O=C(Cc1ccc(-c2cnc3[nH]cc(F)c3c2)cc1F)Nc1cncc(C(F)(F)F)c1 [Compound P-0053, 2-[2-fluoro-4-(3-fluoro-1H-pyrrolo[2,3-b]pyridin-5-yl)phenyl]-N-[5-(trifluoromethyl)-3-pyridyl]acetamide]	0.0001 to 10	0.0001 to 10
CC(=O)c1c[nH]c2ncc(-c3ccc(CC(=O)Nc4cncc(C(F)(F)F)c4)c(F)c3)cc12 [Compound P-0055, 2-[4-(3-acetyl-1H-pyrrolo[2,3-b]pyridin-5-yl)-2-fluoro-phenyl]-N-[5-(trifluoromethyl)-3-pyridyl]acetamide]	0.0001 to 10	0.0001 to 10
Cc1ncc(NC(=O)Cc2ccc(-c3cnc4c(c3)C3(CC3)C(=O)N4)cc2F)cc1C(F)(F)F [Compound P-0057, 2-[2-fluoro-4-(2-oxospiro[1H-pyrrolo[2,3-b]pyridine-3,1′-cyclopropane]-5-yl)phenyl]-N-[6-methyl-5-(trifluoromethyl)-3-pyridyl]acetamide]	0.0001 to 10	0.0001 to 10
O=C(Cc1ccc(-c2cnc(Nc3cnn4ccccc34)nc2)cc1F)Nc1cncc(C(F)(F)F)c1 [Compound P-0058, 2-[2-fluoro-4-[2-(pyrazolo[1,5-a]pyridin-3-ylamino)pyrimidin-5-yl]phenyl]-N-[5-(trifluoromethyl)-3-pyridyl]acetamide]	0.0001 to 10	0.0001 to 10
Cc1ncc(NC(=O)Cc2ccc(-c3cnc4[nH]cc(Cl)c4n3)cc2F)cc1C(F)(F)F [Compound P-0059, 2-[4-(7-chloro-5H-pyrrolo[2,3-b]pyrazin-2-yl)-2-fluoro-phenyl]-N-[6-methyl-5-(trifluoromethyl)-3-pyridyl]acetamide]	0.0001 to 10	0.0001 to 10
O=C(Cc1ccc(-c2cnc3[nH]cc(Cl)c3n2)cc1F)Nc1cnc(Cl)c(C(F)(F)F)c1 [Compound P-0060, 2-[4-(7-chloro-5H-pyrrolo[2,3-b]pyrazin-2-yl)-2-fluoro-phenyl]-N-[6-chloro-5-(trifluoromethyl)-3-pyridyl]acetamide]	0.0001 to 10	0.0001 to 10
O=C(Cc1ccc(-c2cnc3[nH]cc(Cl)c3n2)cc1F)Nc1cncc(C(F)(F)F)c1 [Compound P-0061, 2-[4-(7-chloro-5H-pyrrolo[2,3-b]pyrazin-2-yl)-2-fluoro-phenyl]-N-[5-(trifluoromethyl)-3-pyridyl]acetamide]	0.0001 to 10	0.0001 to 10
Cc1ncc(NC(=O)Cc2ccc(-c3cnc4[nH]cc(F)c4c3)cc2F)cc1C(F)(F)F [Compound P-0062, 2-[2-fluoro-4-(3-fluoro-1H-pyrrolo[2,3-b]pyridin-5-yl)phenyl]-N-[6-methyl-5-(trifluoromethyl)-3-pyridyl]acetamide]	0.0001 to 10	0.0001 to 10
CC(=O)c1c[nH]c2ncc(-c3ccc(CC(=O)Nc4cnc(C)c(C(F)(F)F)c4)c(F)c3)cc12 [Compound P-0063, 2-[4-(3-acetyl-1H-pyrrolo[2,3-b]pyridin-5-yl)-2-fluoro-phenyl]-N-[6-methyl-5-(trifluoromethyl)-3-pyridyl]acetamide]	0.0001 to 10	0.0001 to 10
O=C(Cc1ccc(-c2cnc3c(c2)C2(CC2)C(=O)N3)cc1F)Nc1cncc(C(F)(F)F)c1 [Compound P-0064, 2-(2-fluoro-4-(2′-oxo-1′,2′-dihydrospiro[cyclopropane-1,3′-pyrrolo[2,3-b]pyridin]-5′-yl)phenyl)-N-(5-(trifluoromethyl)pyridin-3-yl)acetamide]	0.0001 to 10	0.0001 to 10
Cc1ncc(NC(=O)Cc2ccc(-c3cnc(Nc4cnn5ccccc45)nc3)cc2F)cc1C(F)(F)F [Compound P-0065, 2-(2-fluoro-4-(2-(pyrazolo[1,5-a]pyridin-3-ylamino)pyrimidin-5-yl)phenyl)-N-(6-methyl-5-(trifluoromethyl)pyridin-3-yl)acetamide]	0.0001 to 10	0.0001 to 10
Cc1ncc(NC(=O)Cc2ccc(-c3cnc4[nH]nc(C5CC5)c4c3)cc2F)cc1C(F)(F)F [Compound P-0066, 2-(4-(3-cyclopropyl-1H-pyrazolo[3,4-b]pyridin-5-yl)-2-fluorophenyl)-N-(6-methyl-5-(trifluoromethyl)pyridin-3-yl)acetamide]	0.0001 to 10	0.0001 to 10
Cc1ncc(NC(=O)Cc2ccc(-c3cnc4[nH]c(Cl)cc4c3)cc2F)cc1C(F)(F)F [Compound P-0067, 2-[4-(2-chloro-1H-pyrrolo[2,3-b]pyridin-5-yl)-2-fluoro-phenyl]-N-[6-methyl-5-(trifluoromethyl)-3-pyridyl]acetamide]	0.0001 to 10	0.0001 to 10
CCC(=O)c1c[nH]c2ncc(-c3ccc(CC(=O)Nc4cncc(C(F)(F)F)c4)c(F)c3)cc12 [Compound P-0068, 2-[2-fluoro-4-(3-propanoyl-1H-pyrrolo[2,3-b]pyridin-5-yl)phenyl]-N-[5-(trifluoromethyl)-3-pyridyl]acetamide]	0.0001 to 10	0.0001 to 10
O=C(Cc1ccc(-c2cnc(Nc3cnn4ccccc34)nc2)c(F)c1)Nc1cncc(C(F)(F)F)c1 [Compound P-0071, 2-[3-fluoro-4-[2-(pyrazolo[1,5-a]pyridin-3-ylamino)pyrimidin-5-yl]phenyl]-N-[5-(trifluoromethyl)-3-pyridyl]acetamide]	0.0001 to 10	0.0001 to 10
O=C(Cc1ccc(-c2cnc(Nc3cnn4ccccc34)nc2)cc1)Nc1cncc(C(F)(F)F)c1 [Compound P-0074, 2-[4-[2-(pyrazolo[1,5-a]pyridin-3-ylamino)pyrimidin-5-yl]phenyl]-N-[5-(trifluoromethyl)-3-pyridyl]acetamide]	0.0001 to 10	0.0001 to 10
O=C(Cc1cc(F)c(-c2cnc(Nc3cnn4ccccc34)nc2)cc1F)Nc1cncc(C(F)(F)F)c1 [Compound P-0075, 2-[2,5-difluoro-4-[2-(pyrazolo[1,5-a]pyridin-3-ylamino)pyrimidin-5-yl]phenyl]-N-[5-(trifluoromethyl)-3-pyridyl]acetamide]	0.0001 to 10	0.0001 to 10
Cc1ncc(NC(=O)Cc2ccc(-c3cnc(Nc4cnn(C)c4C)nc3)cc2F)cc1C(F)(F)F [Compound P-0076, 2-[4-[2-[(1,5-dimethylpyrazol-4-yl)amino]pyrimidin-5-yl]-2-fluoro-phenyl]-N-[6-methyl-5-(trifluoromethyl)-3-pyridyl]acetamide]	0.0001 to 10	0.0001 to 10
Cc1nn(C)cc1Nc1ncc(-c2ccc(CC(=O)Nc3cnc(C)c(C(F)(F)F)c3)c(F)c2)cn1 [Compound P-0077, 2-[4-[2-[(1,3-dimethylpyrazol-4-yl)amino]pyrimidin-5-yl]-2-fluoro-phenyl]-N-[6-methyl-5-(trifluoromethyl)-3-pyridyl]acetamide]	0.0001 to 10	0.0001 to 10
